Data taken from paper PMC12607321, “Sumac Polyphenols as Pan-Herpesvirus Inhibitors” (International Journal of Molecular Sciences, 2025).
Values after ≈ are worked out from the molar mass of the structure shown. Values joined by “and” are separate entries in the source; they are usually repeats but may differ in a detail not shown here. Equal entries are not always repeated. Where two headings read alike, the source gives them in different places.

Columns and labels:
[1] = tested on: influenza A virus/California/07/2009 (H1N1) pdm; assay: microbe, parasite or virus in culture; assay type: cell-based; conditions: for IC50: IAV H1N1pdm in MDCK cells
[2] = tested on: HSV-1L2; assay: Antiviral activity in Vero E6 cells infected with HSV-1 (cytopathic effect); assay type: cell-based
[3] = tested on: HSV-2BH; assay: Antiviral activity in Vero E6 cells infected with HSV-2 (cytopathic effect); assay type: cell-based
[4] = tested on: Vero E6 cells; assay: Cytotoxicity (MTT) in Vero E6 cells (HSV system); assay type: cell-based
[5] = tested on: B95-8 cells; assay: Cytotoxicity (MTT) in B95-8 cells; assay type: cell-based, cotton-top tamarin (Saguinus oedipus); conditions: B95-8 cells, MTT, 72 h
Protocol: (§1) In each virus–cell system, cytotoxicity ranges were determined for polyphenols and reference compounds using MTT assay. Half-maximal cytotoxic concentrations (CC50) were determined from the curves of the dependence of the proportion of cells retaining viability after incubation with the compound (relative to the number of cells incubated in the absence of the compound) on its concentration, using nonlinear regression equations (4 parameters).
(§2) To assess cytotoxicity, B95-8 cells (5 × 10^5 per 1 mL) were incubated with polyphenols at 37 °C in an atmosphere of 5% CO2 for 72 h. The experiment was then carried out as described in Section 4.3.5.

[6] = tested on: MDCK cells; conditions: MTT
[7] = tested on: HIV-1 (HIVIIIB); assay: microbe, parasite or virus in culture; assay type: cell-based; conditions: Human immunodeficiency virus 1, MT4; HIV-1 IIIB in MT-4 cells
[8] = in vitro; conditions: human
[9] = Cytotoxicity (MTT) in Vero E6 cells (HSV system); assay type: cell-based; conditions: African green monkey
[10] = tested on: CMV (strain AD169); assay: Anti-CMV, post-inoculation setup: inhibition of intracellular replication (cells stained for viral proteins) in HELF; assay type: cell-based, human cytomegalovirus
[11] = tested on: CMV (strain AD169); assay: Anti-CMV, post-inoculation setup: inhibition of infectious virus production (plaques from conditioned medium) in HELF; assay type: cell-based, human cytomegalovirus
[12] = tested on: CMV (strain AD169); assay: Anti-CMV, pre-inoculation setup (plaques) in HELF; assay type: cell-based, human cytomegalovirus
[13] = tested on: EBVB95-8; assay: Inhibition of EBV replication in B95-8 cells (EBV genomic DNA, real-time PCR); assay type: cell-based, Epstein–Barr virus; conditions: for IC50: human gammaherpesvirus 4, B-95-8, 48 h, read-out: IC50, Inhibition on EBV Replication
[14] = Cytotoxicity (MTT) in B95-8 cells; assay type: cell-based, cotton-top tamarin (Saguinus oedipus); conditions: cotton-top tamarin (Saguinus oedipus)
Protocol: as §1, §2

[15] = in vitro; conditions: human; remark: listed apart in the source
[16] = tested on: SARS-CoV-2 (HCoV-19/Russia/Moscow-PMVL-12/2020, EPI_ SL_572398); assay: microbe, parasite or virus in culture; assay type: cell-based; conditions: for IC50: Severe acute respiratory syndrome coronavirus 2, Vero C1008; for Δ(lgTCID50)max: maximum difference in virus titers, Vero E6 cells
[17] = Cytotoxicity (MTT) in Vero E6 cells (SARS-CoV-2 system); assay type: cell-based; conditions: African green monkey
Protocol: First, we performed biological testing of Rutan and geraniin against IAV and SARS-CoV-2. […] In addition, we evaluated geraniin against SARS-CoV-2 (in Vero E6 cells), and HIV-1 (in MT-4 cells) to confirm its activity. In all experiments three parameters were determined: concentrations of a drug that suppressed virus replication (IC50) or decreased cell viability (CC50) by 50% as well as their ratio—the selectivity index (SI, CC50/IC50 [123]).
as §1

[18] = tested on: IAV; conditions: cited from earlier work
[19] = tested on: SARS-CoV-2; parameters: method as in doi:10.2139/ssrn.4000447; conditions: geraniin isolated from Elaeocarpus sylvestris; cited from earlier work
[20] = tested on: HIV-1; parameters: method as in ref 103 (Notka et al.); conditions: ref 103 (Notka et al.); cited from earlier work
[21] = in vitro; conditions: dog
[22] = tested on: CMVTowne strain; parameters: method as in ref 35 (Kim et al.); conditions: human foreskin fibroblasts, ref 35 (Kim et al.); cited from earlier work
[23] = Cytotoxicity (MTT) in HELF cells; conditions: human
[24] = Human alphaherpesvirus 1, Vero C1008, HSV-1L2, Vero E6, 0.1 PFU/cell, read-out: IC50
[25] = Human alphaherpesvirus 2, Vero C1008, HSV-2BH, Vero E6, 0.1 PFU/cell, read-out: IC50
[26] = Human betaherpesvirus 5, post-inoculation setup, CMV AD169 in HELF
[27] = Influenza A virus, H1N1, read-out: IC50
[28] = Human betaherpesvirus 5, AD169, HELF

## 2,4-bis-O-galloyl-1,3,6-tri-O-galloyl-β-D-glucose [R7]
[1]
  Δ(lgTCID50)max: 2.75
  IC50: 2.13 µg/mL
[2]
  IC50: 5.95 µg/mL
  IC95: 8.32 µg/mL
[3]
  IC50: 8.32 µg/mL
  IC95: 31.25 µg/mL
[4]
  CC50: 165.00 µg/mL
[5]
  CC50: 33 µg/mL
[6]
  CC50: 191.01 µg/mL

## Cc1cn([C@H]2C[C@H](N=[N+]=[N-])[C@@H](CO)O2)c(=O)[nH]c1=O [Azidothymidine, reference compound]
[7]
  IC50: 0.002 µg/mL (≈ 0.00748 µM)
[8]
  CC50: 3.6 µg/mL (≈ 13.5 µM)

## O=C(O)P(=O)(O)O [Foscarnet, reference compound]
[2]; HSV-1L2, Vero E6, 0.1 PFU/cell
  IC95: 62.5 µg/mL (≈ 496 µM)
[2]; [24]
  IC50: 15.6 µg/mL (≈ 124 µM)
[3]; HSV-2BH, Vero E6, 0.1 PFU/cell
  IC95: 31.25 µg/mL (≈ 248 µM)
[3]; [25]
  IC50: 7.8 µg/mL (≈ 61.9 µM)
[9]
  CC50: > 125 µg/mL

## Nc1nc(O)c2ncn(COC(CO)CO)c2n1 [Ganciclovir, reference compound]
[10]; [26]
  IC50: 0.22 µg/mL (≈ 0.862 µM)
[11]; [26]
  IC50: < 0.1 µg/mL
[12]; pre-inoculation setup, CC50/IC50
  SI, Pre-Inoculation Setup: No activity
[12]; pre-inoculation setup, CMV AD169 in HELF
  IC50, Pre-Inoculation Setup: No activity
[13]
  IC50: 100 µg/mL (≈ 392 µM)
[14]
  CC50 at 72 h: > 1000 µg/mL
[15]
  CC50 at 72 h: 185 µg/mL (≈ 725 µM)

## O=C1O[C@H]2C3OC(=O)c4cc(O)c(O)c(O)c4-c4c(cc(O)c(O)c4O)C(=O)OC[C@H]2O[C@@H](OC(=O)c2cc(O)c(O)c(O)c2)[C@@H]3OC(=O)c2cc(O)c(O)c3c2[C@@H]2C1=CC(=O)[C@](O)(O3)C2(O)O [Geraniin, (1R,7R,26R,28S,29R,38R)-1,13,14,15,18,19,20,34,35,39,39-Undecahydroxy-2,5,10,23,31-pentaoxo-6,9,24,27,30,40-hexaoxaoctacyclo [34.3.1.0~4,38~.0~7,26~.0~8,29~.0~11,16~.0~17, 22~.0~32,37~]tetraconta-3,11,1 3,15,17,19,21,32,34,36-decaen-28-yl 3,4,5-trihydroxybenzoate]
[1]
  Δ(lgTCID50)max: 4.5
[1]; [27]
  IC50: 10.8 µg/mL (≈ 11.4 µM)
[16]; SARS-CoV-2 in Vero E6 cells, read-out: IC50
  IC50: 5.2 µg/mL (≈ 5.46 µM)
[16]
  Δ(lgTCID50)max: 4.75
[17]
  CC50: 65.4 µg/mL (≈ 68.7 µM)
[7]
  IC50: 1.6 µg/mL (≈ 1.68 µM)
[2]; HSV-1L2, Vero E6, 0.1 PFU/cell
  IC95: 1.56 µg/mL (≈ 1.64 µM)
[2]; [24]
  IC50: 1.2 µg/mL (≈ 1.26 µM)
[3]; HSV-2BH, Vero E6, 0.1 PFU/cell
  IC95: 6.25 µg/mL (≈ 6.56 µM)
[3]; [25]
  IC50: 0.39 µg/mL (≈ 0.409 µM)
[9]
  CC50: 65.9 µg/mL (≈ 69.2 µM)
[10]; CMV AD169 in HELF
  activity against CMV (in words): did not interfere
[13]; B95-8 cells
  activity against EBV (in words): did not interfere
[14]; B95-8 cells, MTT, 72 h, read-out: CC50
  CC50 at 72 h: 63 µg/mL (≈ 66.1 µM)
[18]; ref 72 (Joo et al.)
  result for geraniin against IAV compared with IC50: 5.3 µg/mL
[18]; ref 96 (Choi et al.)
  result for geraniin against IAV compared with IC50: 34 µg/mL
[19]
  concentration range suppressing virus replication: 1 to 25 µg/mL
[20]
  IC50: 0.46 µg/mL (≈ 0.483 µM)
[21]
  CC50: 288 µg/mL (≈ 302 µM)
[8]
  CC50: 41 µg/mL (≈ 43 µM)

## CC(C)(C)[C@H](NC(=O)C(F)(F)F)C(=O)N1C[C@H]2[C@@H]([C@H]1C(=O)N[C@H](C#N)C[C@@H]1CCNC1=O)C2(C)C [Nirmatrelvir, reference compound]
[16]
  IC50: 0.1 µg/mL (≈ 0.2 µM)
  Δ(lgTCID50)max: 6.0
[17]
  CC50: > 20 µg/mL

## CCOC(=O)C1=C[C@@H](OC(CC)CC)[C@H](NC(C)=O)[C@@H](N)C1 [Oseltamivir, reference compound]
[1]
  Δ(lgTCID50)max: 6.0
[1]; [27]
  IC50: 0.02 µg/mL (≈ 0.064 µM)
[21]
  CC50: > 10 µg/mL

## O=C(OC[C@H]1O[C@@H](OC(=O)c2cc(O)c(O)c(O)c2)[C@H](OC(=O)c2cc(O)c(O)c(O)c2)[C@@H](OC(=O)c2cc(O)c(O)c(O)c2)[C@@H]1OC(=O)c1cc(O)c(O)c(O)c1)c1cc(O)c(O)c(O)c1 [R5, 1,2,3,4,6-penta-O-galloyl-β-D-glucose]
[1]
  Δ(lgTCID50)max: 1.5
[1]; [27]
  IC50: 8.85 µg/mL (≈ 9.41 µM)
[2]
  IC95: 25.0 µg/mL (≈ 26.6 µM)
[2]; Human alphaherpesvirus 1, Vero C1008, read-out: IC50
  IC50: 12.5 µg/mL (≈ 13.3 µM)
[3]
  IC95: 25.0 µg/mL (≈ 26.6 µM)
[3]; Human alphaherpesvirus 2, Vero C1008, read-out: IC50
  IC50: 12.5 µg/mL (≈ 13.3 µM)
[9]
  CC50: 188 µg/mL (≈ 200 µM)
[10]
  reduction of the number of infected HELF: 71% and 86%
[10]; [28]
  IC50: 7.4 µg/mL (≈ 7.87 µM)
[11]; [28]
  IC50: 6.4 µg/mL (≈ 6.8 µM)
[12]; [28]
  IC50: 2.2 µg/mL (≈ 2.34 µM)
[13]; 10 μg/mL, 48 h, B95-8 cells
  decrease of the level of intracellular viral DNA: 39 ± 5%
[13]
  IC50: > 10 µg/mL
[5]
  CC50: 85 µg/mL (≈ 90.4 µM)
[22]
  activity against CMV (in words): failed to detect the activity
[21]
  CC50: 86.3 µg/mL (≈ 91.8 µM)
[23]
  CC50 at 72 h: 150 µg/mL (≈ 159 µM)

## O=C(OC[C@H]1O[C@@H](OC(=O)c2cc(O)c(O)c(O)c2)[C@H](OC(=O)c2cc(O)c(O)c(O)c2)[C@@H](OC(=O)c2cc(O)c(O)c(OC(=O)c3cc(O)c(O)c(O)c3)c2)[C@@H]1OC(=O)c1cc(O)c(O)c(O)c1)c1cc(O)c(O)c(O)c1 [R6, 3-bis-O-galloyl-1,2,4,6-tetra-O-galloyl-β-D-glucose]
[1]
  Δ(lgTCID50)max: 1.0
  IC50: >50 µg/mL
[2]; HSV-1L2, Vero E6, 0.1 PFU/cell
  IC50: 25.0 µg/mL (≈ 22.9 µM)
  IC95: >25.0 µg/mL
[3]; HSV-2BH, Vero E6, 0.1 PFU/cell
  IC50: 31.25 µg/mL (≈ 28.6 µM)
  IC95: 50.0 µg/mL (≈ 45.8 µM)
[4]
  CC50: 69.62 µg/mL (≈ 63.7 µM)
[5]
  CC50: >20 µg/mL
[6]
  CC50: 93.13 µg/mL (≈ 85.2 µM)

## O=C(OC[C@H]1O[C@@H](OC(=O)c2cc(O)c(O)c(O)c2)[C@H](OC(=O)c2cc(O)c(O)c(OC(=O)c3cc(O)c(O)c(O)c3)c2)[C@@H](OC(=O)c2cc(O)c(O)c(OC(=O)c3cc(O)c(O)c(O)c3)c2)[C@@H]1OC(=O)c1cc(O)c(O)c(OC(=O)c2cc(O)c(O)c(O)c2)c1)c1cc(O)c(O)c(O)c1 [R8, 2,3,4-bis-O-galloyl-1,6-di-O-galloyl-β-D-glucose]
[1]
  Δ(lgTCID50)max: 4.25
  IC50: 0.8 µg/mL (≈ 0.573 µM)
[2]; HSV-1L2, Vero E6, 0.1 PFU/cell
  IC50: 10.0 µg/mL (≈ 7.16 µM)
  IC95: 31.25 µg/mL (≈ 22.4 µM)
[3]; HSV-2BH, Vero E6, 0.1 PFU/cell
  IC50: 31.25 µg/mL (≈ 22.4 µM)
  IC95: 62.5 µg/mL (≈ 44.7 µM)
[4]
  CC50: 106.00 µg/mL (≈ 75.9 µM)
[5]
  CC50: >20 µg/mL
[6]
  CC50: 233 µg/mL (≈ 167 µM)
